Assay results from ChEMBL document CHEMBL1136331, “Photoregulation of deacylation rate of acyl trypsin derived from photoresponsive inverse substrate” (Bioorg Med Chem Lett, 2003).

Tests used:
[1] = Kinetic parameter for rate constant of acylation step (k2) was determined
[2] = Kinetic parameter for rate constant of deacylation step (k3) was determined
[3] = Ratio of kinetic parameter (k2) to that of kinetic parameter(Ks)

SMILES | k2 [1] | k3 [2] | k2/Ks [3]
N=C(N)Nc1ccc(OC(=O)c2ccc(/N=N\c3ccccc3)cc2)cc1 | 7.75 s⁻¹ | 0.000702 s⁻¹ | 164000 M⁻¹ s⁻¹
N=C(N)Nc1ccc(OC(=O)c2ccc(/N=N/c3ccccc3)cc2)cc1 | 1.06 s⁻¹ | 0.000378 s⁻¹ | 151000 M⁻¹ s⁻¹
